Results published in PMC6424229, “^68Ga-FAPI PET/CT: Biodistribution and Preliminary Dosimetry Estimate of 2 DOTA-Containing FAP-Targeting Agents in Patients with Various Cancers” (Journal of Nuclear Medicine, 2019).
Values joined by “and” are separate entries in the source; they are usually repeats but may differ in a detail not shown here. Identical values can stand only once. Like-named read-outs stand apart in the source and are kept apart here.

How the values were obtained:
[1] = Radiation dosimetry estimate from serial PET/CT (QDOSE; OLINDA 1.1, IDAC-Dose 1.0/2.1); type: in vivo, patients; conditions: for Radiation exposure (effective dose) per 100 MBq: PET; for Radiation exposure (effective dose) per 100 MBq / Effective dose / Dosimetry estimate (OLINDA), Red marrow / Dosimetry estimate (OLINDA), Adrenals / Dosimetry estimate (OLINDA), Brain / Dosimetry estimate (OLINDA), Breasts / Dosimetry estimate (OLINDA), Gallbladder wall / Dosimetry estimate (OLINDA), Heart wall / Dosimetry estimate (OLINDA), Kidneys / Dosimetry estimate (OLINDA), Liver / Dosimetry estimate (OLINDA), Lower large intestine wall / Dosimetry estimate (OLINDA), Lungs / Dosimetry estimate (OLINDA), Muscle / Dosimetry estimate (OLINDA), Osteogenic cells / Dosimetry estimate (OLINDA), Ovaries / Dosimetry estimate (OLINDA), Pancreas / Dosimetry estimate (OLINDA), Skin / Dosimetry estimate (OLINDA), Small intestine / Dosimetry estimate (OLINDA), Spleen / Dosimetry estimate (OLINDA), Stomach wall / Dosimetry estimate (OLINDA), Testes / Dosimetry estimate (OLINDA), Thymus / Dosimetry estimate (OLINDA), Thyroid / Dosimetry estimate (OLINDA), Upper large intestine wall / Dosimetry estimate (OLINDA), Urinary bladder wall / Dosimetry estimate (OLINDA), Uterus / Dosimetry estimate (OLINDA), Total body: one patient per tracer; for Equivalent dose / radiation dose of one examination: examination with 200 MBq of 68Ga; for Dosimetry estimate (OLINDA), Red marrow: approximated from PET volume of interest in a lumbar vertebra; for Dosimetry estimate (OLINDA), Red marrow / Dosimetry estimate (OLINDA), Adrenals / Dosimetry estimate (OLINDA), Brain / Dosimetry estimate (OLINDA), Breasts / Dosimetry estimate (OLINDA), Gallbladder wall / Dosimetry estimate (OLINDA), Heart wall / Dosimetry estimate (OLINDA), Kidneys / Dosimetry estimate (OLINDA), Liver / Dosimetry estimate (OLINDA), Lower large intestine wall / Dosimetry estimate (OLINDA), Lungs / Dosimetry estimate (OLINDA), Muscle / Dosimetry estimate (OLINDA), Osteogenic cells / Dosimetry estimate (OLINDA), Ovaries / Dosimetry estimate (OLINDA), Pancreas / Dosimetry estimate (OLINDA), Skin / Dosimetry estimate (OLINDA), Small intestine / Dosimetry estimate (OLINDA), Spleen / Dosimetry estimate (OLINDA), Stomach wall / Dosimetry estimate (OLINDA), Testes / Dosimetry estimate (OLINDA), Thymus / Dosimetry estimate (OLINDA), Thyroid / Dosimetry estimate (OLINDA), Upper large intestine wall / Dosimetry estimate (OLINDA), Urinary bladder wall / Dosimetry estimate (OLINDA), Uterus / Dosimetry estimate (OLINDA), Total body: unit not given; for Dosimetry estimate (OLINDA), Adrenals / Dosimetry estimate (OLINDA), Brain / Dosimetry estimate (OLINDA), Breasts / Dosimetry estimate (OLINDA), Gallbladder wall / Dosimetry estimate (OLINDA), Heart wall / Dosimetry estimate (OLINDA), Kidneys / Dosimetry estimate (OLINDA), Liver / Dosimetry estimate (OLINDA), Lower large intestine wall / Dosimetry estimate (OLINDA), Lungs / Dosimetry estimate (OLINDA), Muscle / Dosimetry estimate (OLINDA), Osteogenic cells / Dosimetry estimate (OLINDA), Ovaries / Dosimetry estimate (OLINDA), Pancreas / Dosimetry estimate (OLINDA), Skin / Dosimetry estimate (OLINDA), Small intestine / Dosimetry estimate (OLINDA), Spleen / Dosimetry estimate (OLINDA), Stomach wall / Dosimetry estimate (OLINDA), Testes / Dosimetry estimate (OLINDA), Thymus / Dosimetry estimate (OLINDA), Thyroid / Dosimetry estimate (OLINDA), Upper large intestine wall / Dosimetry estimate (OLINDA), Urinary bladder wall / Dosimetry estimate (OLINDA), Uterus: organ dose
Method: (§1) To approximate the dosimetry, imaging was performed 10 min, 1 h, and 3 h after injection of 306 MBq of ^68Ga-FAPI-2 in one patient and 258 MBq of ^68Ga-FAPI-4 in another patient.
The dosimetry analysis was performed using the QDOSE dosimetry software suite (ABX-CRO). Kidneys, liver, spleen, urinary bladder content, red marrow, heart content, and remainder of body were included as source organs. Because of blood sampling failure due to poor vein conditions, the red marrow dose was approximated using the activity segmented with volume-of-interest technique in the PET scans. The non–tumor-affected lumbar vertebrae 5 (^68Ga-FAPI-2) and 4 (^68Ga-FAPI-4) were assumed to contain 2.46% of the total red marrow ([6]). Using QDOSE, all CT images were coregistered using an automatic deformable coregistration. PET images were coupled to the CT images of the corresponding imaging session. The PET images were transformed according to the transformation matrix of the coupled CT. The volumes of interest of all segmented source organs were drawn in the examination that had the best organ delineation and then were copied onto all other time points to calculate the time–activity curves. Monoexponential curve fitting was then applied to all organ time–activity curves. The cumulative activity Ã between time 0 and the first measured time point was calculated assuming a linear increase from 0 to the first measured activity. The Ã between the first measured time point and the last measured time point was integrated numerically using trapezoidal approximation. The Ã from the last measured time point to infinity was integrated using the fitted function. The total-body Ã was based on the injected activity and the calculated effective half-life in a total-field-of-view volume of interest, assuming that the limbs behave similar to the torso. This approach was chosen because some parts of the body were not in the field of view of the PET/CT device. The Ã values of total body and red marrow were added as organs into QDOSE. The Ã of the remainder of the body was then automatically calculated by subtracting all source-organ Ã values from the total-body Ã. All source-organ residence times were calculated by dividing the Ã by the injected activity. Absorbed and effective dose calculations were performed using the International Commission on Radiological Protection (ICRP)–endorsed IDAC-Dose 2.1 and IDAC-Dose 1.0 ([7]), which are integrated in QDOSE. In addition, the residence times of all included source organs and remainder of body were exported as an OLINDA case file for dose calculation in OLINDA 1.1 ([8]). Both IDAC-Dose 1.0 and OLINDA 1.1 are based on the Cristy–Eckerman stylized phantom series ([9]). IDAC-Dose 2.1 is based on the ICRP adult reference computational phantoms ([10]) and the ICRP-specific absorbed fractions ([11]). Organ masses were not adapted to individual subject organ masses.

[2] = test system: tumor lesions; assay: Serial PET/CT 10 min, 1 h and 3 h after injection (tracer kinetics, tumor retention); type: in vivo, patients; conditions: mean; one patient with metastasized breast cancer per tracer
Method: as §1

[3] = test system: tumor lesions; assay: PET/CT tumor uptake (SUVmax) 1 h after injection; conditions: not statistically significant; for Uptake by tumors, average SUVmax: interindividual comparison, 25 patients per tracer
[4] = PET/CT normal-organ / background uptake (SUVmax) 1 h after injection; conditions: for Unspecific uptake in locations of wound healing after surgical intervention, average SUVmax: interindividual comparison, 25 patients per tracer, not statistically significant
[5] = literature value, cited from earlier work
[6] = intraindividual comparison of 6 patients

Row | Compound | Radiation exposure (effective dose) per 100 MBq [1] | Effective dose ([1]; calculated with IDAC1/ICRP60) | Effective dose ([1]; calculated with IDAC2/ICRP103) | Effective dose ([1]; calculated with OLINDA) | Equivalent dose / radiation dose of one examination [1] | Dosimetry estimate (OLINDA), Red marrow [1] | Dosimetry estimate (OLINDA), Adrenals [1] | Dosimetry estimate (OLINDA), Brain [1] | Dosimetry estimate (OLINDA), Breasts [1] | Dosimetry estimate (OLINDA), Gallbladder wall [1] | Dosimetry estimate (OLINDA), Heart wall [1] | Dosimetry estimate (OLINDA), Kidneys [1] | Dosimetry estimate (OLINDA), Liver [1] | Dosimetry estimate (OLINDA), Lower large intestine wall [1] | Dosimetry estimate (OLINDA), Lungs [1] | Dosimetry estimate (OLINDA), Muscle [1] | Dosimetry estimate (OLINDA), Osteogenic cells [1] | Dosimetry estimate (OLINDA), Ovaries [1] | Dosimetry estimate (OLINDA), Pancreas [1] | Dosimetry estimate (OLINDA), Skin [1] | further results
1 | N#C[C@@H]1CCCN1C(=O)CNC(=O)c1ccnc2ccc(OCCCN3CCN(C(=O)CN4CCN(CC(=O)O)CCN(CC(=O)O)CCN(CC(=O)O)CC4)CC3)cc12 [^68Ga-FAPI-2, metal not drawn] | 1.4 mSv/100 MBq and 1.4–1.8 mSv/100 MBq | 1.82E−2 mSv/MBq | 1.79E−2 mSv/MBq | 1.80E−2 mSv/MBq and 1.80E−02 mSv/MBq | 3–4 mSv | 3.28E−02 | 1.23E−02 | 9.54E−03 | 9.58E−03 | 1.19E−02 | 4.73E−02 | 4.45E−02 | 1.51E−02 | 1.23E−02 | 1.09E−02 | 1.04E−02 | 2.94E−02 | 1.24E−02 | 1.23E−02 | 9.01E−03 | Dosimetry estimate (OLINDA), Small intestine [1]: 1.19E−02; Dosimetry estimate (OLINDA), Spleen [1]: 2.62E−02; Dosimetry estimate (OLINDA), Stomach wall [1]: 1.13E−02; Dosimetry estimate (OLINDA), Testes [1]: 1.04E−02; Dosimetry estimate (OLINDA), Thymus [1]: 1.15E−02; Dosimetry estimate (OLINDA), Thyroid [1]: 1.03E−02; Dosimetry estimate (OLINDA), Upper large intestine wall [1]: 1.17E−02; Dosimetry estimate (OLINDA), Urinary bladder wall [1]: 8.89E−02; Dosimetry estimate (OLINDA), Uterus [1]: 1.33E−02; Dosimetry estimate (OLINDA), Total body [1]: 1.19E−02; Decline of tumor uptake (washout) from 1 h to 3 h after injection [2]: 75%; Uptake by tumors, average SUVmax [3]: 8.37; Tumor uptake, average SUVmax [3, 6]: 7.37; Unspecific uptake in locations of wound healing after surgical intervention, average SUVmax [4]: 7.07; Background uptake in brain, average SUVmax [4, 6]: 0.32; Background uptake in liver, average SUVmax [4, 6]: 1.69; Background uptake in oral/pharyngeal mucosa, average SUVmax [4, 6]: 2.57; Uptake in all other organs compared with 18F-FDG ([4]; organs other than brain, liver, oral/pharyngeal mucosa, 6 patients): no significant difference
2 | N#C[C@@H]1CC(F)(F)CN1C(=O)CNC(=O)c1ccnc2ccc(OCCCN3CCN(C(=O)CN4CCN(CC(=O)O)CCN(CC(=O)O)CCN(CC(=O)O)CC4)CC3)cc12 [^68Ga-FAPI-4, metal not drawn] | 1.8 mSv/100 MBq and 1.4–1.8 mSv/100 MBq | 1.66E−2 mSv/MBq | 1.35E−2 mSv/MBq | 1.64E−2 mSv/MBq and 1.64E−02 mSv/MBq | 3–4 mSv | 2.08E−02 | 1.12E−02 | 9.11E−03 | 8.88E−03 | 1.13E−02 | 2.02E−02 | 4.43E−02 | 1.46E−02 | 1.17E−02 | 9.89E−03 | 9.91E−03 | 2.16E−02 | 1.19E−02 | 1.13E−02 | 8.63E−03 | Dosimetry estimate (OLINDA), Small intestine [1]: 1.13E−02; Dosimetry estimate (OLINDA), Spleen [1]: 1.05E−02; Dosimetry estimate (OLINDA), Stomach wall [1]: 1.06E−02; Dosimetry estimate (OLINDA), Testes [1]: 1.01E−02; Dosimetry estimate (OLINDA), Thymus [1]: 1.01E−02; Dosimetry estimate (OLINDA), Thyroid [1]: 9.82E−03; Dosimetry estimate (OLINDA), Upper large intestine wall [1]: 1.11E−02; Dosimetry estimate (OLINDA), Urinary bladder wall [1]: 9.91E−02; Dosimetry estimate (OLINDA), Uterus [1]: 1.30E−02; Dosimetry estimate (OLINDA), Total body [1]: 1.09E−02; Decline of tumor uptake (washout) from 1 h to 3 h after injection [2]: 25%; Uptake by tumors, average SUVmax [3]: 10.07; Unspecific uptake in locations of wound healing after surgical intervention, average SUVmax [4]: 6.76
3 | O=C([O-])CN(CCN(CC(=O)[O-])Cc1cc(CCC(=O)NCCCCCC(=O)NCCCC[C@H](NC(=O)N[C@@H](CCC(=O)O)C(=O)O)C(=O)O)ccc1[O-])Cc1cc(CCC(=O)O)ccc1[O-].[68Ga+3].[OH3+] [^68Ga-PSMA-11] | – | – | – | – | – | – | – | – | – | – | – | – | – | – | – | – | – | – | – | – | Effective dose [5]: 1.6–2.4 mSv/100 MBq
4 | O=C([O-])CN1CCN(CC(=O)[O-])CCN(CC(=O)NC[C@H]2CC[C@H](C(=O)N[C@@H](Cc3ccc4ccccc4c3)C(=O)NCCCC[C@H](NC(=O)N[C@@H](CCC(=O)O)C(=O)O)C(=O)O)CC2)CCN(CC(=O)[O-])CC1.[68Ga+3] [^68Ga-PSMA-617] | – | – | – | – | – | – | – | – | – | – | – | – | – | – | – | – | – | – | – | – | Effective dose ([5]; no reference of its own printed): 2.1 mSv/100 MBq
